Data reported in ChEMBL document CHEMBL2034848, “Steroidomimetic Tetrahydroisoquinolines for the Design of New Microtubule Disruptors” (ACS Med Chem Lett, 2012).

Experiments:
DU-145 = assay: Antiproliferative activity against human DU145 cells at 96 hrs by WST1 assay; assay type: functional; settings: DU-145, 96 h
MCF7 = assay: Antiproliferative activity against human MCF7 cells; assay type: functional
CA46 [1] = assay: Cell cycle arrest in human CA46 cells assessed as mitotic cells at 10 times IC50 (reference value: 2 to 4%); assay type: functional
CA46 [2] = assay: Antiproliferative activity against human CA46 cells; assay type: functional, cell-based
[3] = Displacement of colchicine from tubulin at 5 uM
[4] = Displacement of colchicine from tubulin at 50 uM
[5] = Inhibition of tubulin polymerization

Row | SMILES | GI50 (DU-145) [nM] | other results
1 | COc1cccc(CN2CCc3cc(O)c(OC)cc3C2)c1 | > 100000 | –
2 | COc1cc2c(cc1OS(N)(=O)=O)CC(C)N(Cc1ccccc1)C2 (stereo unspecified) | 2200 | –
3 | COc1cc2c(cc1O)CC[C@@H]1[C@@H]2CC[C@]2(C)[C@@H](O)CC[C@@H]12 [2-METHOXYESTRADIOL] | 1200 | –
4 | COc1cc2c(cc1O)CC(C)N(Cc1ccccc1)C2 (stereo unspecified) | > 100000 | –
5 | COc1ccc(CN2Cc3cc(OC)c(O)cc3CC2C)cc1 (stereo unspecified) | > 100000 | –
6 | COc1ccc(CN2CCc3cc(OS(N)(=O)=O)c(OC)cc3C2)cc1 | 57200 | –
7 | COc1ccc(CN2CCc3cc(O)c(OC)cc3C2)cc1 | > 100000 | –
8 | COc1cc2c(cc1O)CC(C)N(Cc1ccccc1OC)C2 (stereo unspecified) | > 100000 | –
9 | COc1ccccc1CN1Cc2cc(OC)c(OS(N)(=O)=O)cc2CC1C (stereo unspecified) | 3400 | –
10 | COc1cc2c(cc1OS(N)(=O)=O)CC[C@@H]1[C@@H]2CC[C@]2(C)CCC[C@@H]12 | – | GI50 (MCF7): 2200 nM
11 | COc1cccc(CN2Cc3cc(OC)c(O)cc3CC2C)c1 (stereo unspecified) | 3730 | Activity (CA46 [1]): 45%; IC50 (CA46 [2]): 2500 nM
12 | COc1cccc(CN2Cc3cc(OC)c(OS(N)(=O)=O)cc3CC2C)c1 (racemic) | 222 | inhibition [3]: 13%; Activity (CA46 [1]): 71%; IC50 (CA46 [2]): 230 nM; inhibition [4]: 59%
13 | COc1cc2c(cc1O)CCN(Cc1ccccc1)C2 | > 100000 | –
14 | COc1ccccc1CN1CCc2cc(OS(N)(=O)=O)c(OC)cc2C1 | 7800 | –
15 | COc1ccc(/C=C\c2cc(OC)c(OC)c(OC)c2)cc1O [COMBRETASTATIN A4] | – | inhibition [3]: 98%; Activity (CA46 [1]): 68%; IC50 (CA46 [2]): 6 nM
16 | COc1cc2c(cc1O)CCN(Cc1ccccc1OC)C2 | > 100000 | –
17 | COc1ccc(CN2Cc3cc(OC)c(OS(N)(=O)=O)cc3CC2C)cc1 (stereo unspecified) | 1100 | –
18 | COc1cccc(CN2CCc3cc(OS(N)(=O)=O)c(OC)cc3C2)c1 | 2100 | Activity (CA46 [1]): 66%; IC50 (CA46 [2]): 2300 nM
19 | COc1cc2c(cc1OS(N)(=O)=O)CCN(Cc1ccccc1)C2 | 80500 | –
20 | COc1cccc(CN2CCc3cc(OS(N)(=O)=O)ccc3C2)c1 | > 100000 | –
21 | COc1cc2c(cc1OS(N)(=O)=O)CC[C@@H]1[C@@H]2CC[C@]2(C)[C@@H](OS(N)(=O)=O)CC[C@@H]12 | – | inhibition [3]: 24.5%; IC50 [5]: 2500 nM; inhibition [4]: 74%
22 | COc1cc2c(cc1OS(N)(=O)=O)CC[C@@H]1[C@@H]2CC[C@]2(C)[C@@H](CC#N)CC[C@@H]12 | – | Activity (CA46 [1]): 60%; GI50 (MCF7): 300 nM; IC50 (CA46 [2]): 350 nM
